The text below walks through data of BindingDB's records for doi:10.1021/jm00352a017 (1983).

Assay [1] in a line: Inhibition of rat kidney pyruvate kinase (PK-K).
The nature of assay [2]: Inhibition of rat liver pyruvate kinase (PK-L) at 3.6 mM.
Assay [3] can be described thus: Inhibition of rat kidney pyruvate kinase (PK-K) at 6.7 mM.
Assay [4] is described as follows: Michaelis-Menten constant for inhibition of rat kidney pyruvate kinase (PK-K).

As to `CCSc1nc2c(N)ncnc2n1C1O[C@H](COP(=O)(O)OP(=O)(O)O)[C@@H](O)[C@H]1O` (stereo partly specified), in assay [1], the inhibition constant (Ki) came out at 3.9 mM. In assay [2], `CO[C@H]1[C@@H](O)[C@H](n2cnc3c(N)ncnc32)O[C@@H]1COP(=O)(O)OP(=O)(O)O` [[5-(6-amino-9H-purin-9-yl)-4-hydroxy-3-methoxytetrahydrofuran-2-yl]methyl trihydrogen diphosphate] yielded a Ki of 7 mM. In other words, the millimolar range. For the compound `C[C@@H](OP(=O)(O)OP(=O)(O)O)[C@H]1OC(n2cnc3c(N)ncnc32)[C@H](O)[C@@H]1O` (stereo partly specified), the values for the Ki in assay [3] and in assay [4] were 10.9 mM and 8 mM, respectively.

Take `CCNc1nc2c(N)ncnc2n1C1O[C@H](COP(=O)(O)OP(=O)(O)O)[C@@H](O)[C@H]1O` (stereo partly specified): the inhibitory constant (Ki) in assay [1] came out at 2.9 mM.

In turn, `CSc1nc2c(N)ncnc2n1C1O[C@H](COP(=O)(O)OP(=O)(O)O)[C@@H](O)[C@H]1O` (stereo partly specified) yielded an inhibition constant Ki in assay [1] of 5 mM.
